Laboratory results published in PubChem BioAssay (NCI).
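Test compounds were applied to cells in 96-well plates for 48 hours at 5 doses. GI50: concentration for 50% inhibition of growth. TGI: total growth inhibition.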

Experiments:
Assay in all cases: DTP human tumour cell line panel, 48 h
786-0 renal = tested on: 786-0 renal
HCC-2998 colon = tested on: HCC-2998 colon
K-562 leukemia = tested on: K-562 leukemia
MCF7 breast = tested on: MCF7 breast
RXF 393 renal = tested on: RXF 393 renal
SK-MEL-28 melanoma = tested on: SK-MEL-28 melanoma
SNB-75 CNS = tested on: SNB-75 CNS
UACC-62 melanoma = tested on: UACC-62 melanoma
CCRF-CEM leukemia = tested on: CCRF-CEM leukemia
NCI-H522 lung = tested on: NCI-H522 lung

SMILES	GI50 (786-0 renal) [µM]	TGI (786-0 renal) [µM]	GI50 (HCC-2998 colon) [µM]	TGI (HCC-2998 colon) [µM]	GI50 (K-562 leukemia) [µM]	TGI (K-562 leukemia) [µM]	GI50 (MCF7 breast) [µM]	TGI (MCF7 breast) [µM]	GI50 (RXF 393 renal) [µM]	TGI (RXF 393 renal) [µM]	GI50 (SK-MEL-28 melanoma) [µM]	TGI (SK-MEL-28 melanoma) [µM]	GI50 (SNB-75 CNS) [µM]	TGI (SNB-75 CNS) [µM]	GI50 (UACC-62 melanoma) [µM]	TGI (UACC-62 melanoma) [µM]	TGI (CCRF-CEM leukemia) [µM]	TGI (NCI-H522 lung) [µM]
FC(F)(F)c1cccc(Nc2nc(-c3ccccc3)nc3ncccc23)c1	2.51	6.51	4.91	30.2	3.17	17.9	3.72	14.7	2.21	5.66	7.93	74.4	7.85	31.3	5.84	26.2		
CC(C)=CCC\C(C)=C/C=C/C(C)=C\C=C\C(C)=C/C=C/C=C(C)\C=C\C=C(C)/C=C/C=C(/C)CCC=C(C)C		> 100		> 100		> 100		> 100		> 100		> 100		> 100		> 100	> 100	
COc1ccccc1N1C(=O)C2c3[nH]c4ccccc4c3C3CCC(C(C)(C)C)CC3C2C1=O (stereo unspecified)		> 100		> 100		> 100				> 100		> 100		> 100		> 100	> 100	> 100
Cc1ccc(S(=O)(=O)OC[C@@H]2CO2)cc1		> 100		> 100		> 100				> 100		> 100		> 100			> 100	
Nc1ccccc1S(=O)(=O)N(CC(=O)O)c1ccccc1		> 100				> 100				> 100		> 100		> 100		> 100	> 100	> 100
NC1=NCCC1(c1ccccc1)c1ccccn1 (stereo unspecified)		> 100		> 100		> 100				> 100		> 100		> 100		> 100	> 100	> 100
NS(=O)(=O)c1ccc2c(c1)OCCOCCOCCOCCO2		> 100		> 100		> 100		> 100				> 100		> 100		> 100	> 100	> 100
OCC1=CC(NC2CC(CO)C(O)C(O)C2O)C(O)C(O)C1O (stereo unspecified)		> 100				> 100				> 100		> 100		> 100		> 100	> 100	> 100
COc1cc2c(c3oc4c(O)cccc4c(=O)c13)CC(C(C)(O)CO)O2 (stereo unspecified)		> 100		> 100		> 100		70.8		79.8		> 100				> 100	> 100	> 100
CCOC(=O)CCC1(C(=O)OCC)CCCCC1=O (stereo unspecified)		> 100		> 100		> 100				> 100		> 100		> 100			> 100	> 100
CN(C)N=Nc1ccc(C(N)=O)cc1		> 100		> 100		> 100				> 100		> 100		> 100		> 100	> 100	> 100
